The source of these data is the supplement of paper PMC4862054.

The subject of assay [1] is BT-549. The experiment in a line: normalised viability (% of control), CellTiter-Blue; higher = more viable cells (100 = DMSO, 0 = benzethonium chloride kill control). The note with it: 1 nM; incubation time: 72 h. On the procedure:
(§1)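 DSRT, CellTiter-Blue viability, 72 h incubation. Signal is normalised to DMSO and benzethonium chloride controls. Value is the normalised response at dose 1.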
On the technique in general: Resazurin is reduced to fluorescent resorufin, in cell work by metabolically active cells.

In another assay the test system is HCC1599. The description is as above. The note with it: 1 nM; incubation time: 72 h. On the procedure:
as §1

Another assay has as its system MDA-MB-231. Described as above. As to conditions: 1 nM; incubation time: 72 h. The protocol:
as §1

Assay [2] concerns HCC1143. Described as above. As to conditions: 1 nM; incubation time: 72 h. The protocol: as §1
The next assay relates to CAL-85-1. The assay is described as above. The note with it: 1 nM; incubation time: 72 h. On the procedure:
as §1

For the next assay, the system named is MDA-MB-468. The description is as above. The note with it: 1 nM; incubation time: 72 h. The protocol: as §1
The next assay relates to CAL-148. The assay is described as above. The note with it: 1 nM; incubation time: 72 h. On the procedure:
as §1

The next assay has as its system HCC1937. The assay is described as above. The note with it: 1 nM; incubation time: 72 h. The protocol:
as §1

Assay [3] concerns MDA-MB-436. Described as above. The note with it: 1 nM; incubation time: 72 h. On the procedure: as §1
For the next assay, the system named is HDQ-P1. The description is as above. As to conditions: 1 nM; incubation time: 72 h. The protocol: as §1
For assay [4], the system named is MFM-223. The assay is described as above. The note with it: 1 nM; incubation time: 72 h. On the procedure: as §1
The subject of another assay is MDA-MB-453. The description is as above. The note with it: 1 nM; incubation time: 72 h. The protocol: as §1
The subject of assay [5] is CAL-51. The assay is described as above. As to conditions: 1 nM; incubation time: 72 h. The protocol:
as §1

In assay [6] the test system is BT-474. The description is as above. The note with it: 1 nM; incubation time: 72 h. The protocol: as §1
Another assay relates to DU-4475. The assay is described as above. As to conditions: 1 nM; incubation time: 72 h. The protocol: as §1
Assay [7] deals with CAL-120. The description is as above. The note with it: 1 nM; incubation time: 72 h. The protocol: as §1
Another assay relates to SK-BR-3. The assay is described as above. As to conditions: 1 nM; incubation time: 72 h. The protocol: as §1
For assay [8], the system named is Hs578T. The description is as above. The note with it: 1 nM; incubation time: 72 h. The protocol:
as §1

For assay [9], the system named is HCC1143. The note with it: 72 h. In outline: (§2)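 Plates of 384 wells holding compound in 5 µl medium received breast cancer cell lines in 20 µl suspension and were incubated 72 h. CellTiter-Blue (2.5 µl, 2 h, 37 °C) was used for viability, read at 560/590 nm, and every plate was normalised to vehicle and a positive kill control and assessed by Z'-factor. The EC50 derives from a percent-inhibition dose-response curve fit censored at the highest concentration, leaving out rows whose drug sensitivity score was zero.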

Assay [10] concerns CAL-120. The note with it: 72 h. In outline: as §2
In assay [11] the test system is CAL-51. The note with it: 72 h. The method in brief: (§3)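 Two sequential readouts followed a 72 h incubation of breast cancer cell lines with compound at 5 concentrations in 10-fold steps over a compound-specific 10,000-fold range: CellTox Green fluorescence (485/520 nm) for cell death, then CellTiter-Glo luminescence, after 10 min at room temperature, for viability. Each plate was normalised to 0.1 % DMSO and a positive kill control. Dose-response curves were fitted for EC50, censored at the top concentration.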

In assay [12] the test system is CAL-120. The note with it: 72 h. In outline: as §3
This is another data set of the same source.

In assay [13] the test system is MDA-MB-436. The note with it: 72 h. In outline:
as §3

Assay [14] concerns BT-474. The note with it: 72 h. In outline: as §3
Assay [15] relates to BT-549. As to conditions: 72 h. In outline: as §3
The test system of assay [16] is MFM-223. As to conditions: 72 h. The method in brief:
as §3

Assay [17] relates to Hs578T. The note with it: 72 h. In outline:
as §3

“And” between values parts separate entries of the source, which are not always exact repeats. Equal values may be shown once.

Regarding `CS(=O)(=O)N1CCN(Cc2cc3nc(-c4cccc5[nH]ncc45)nc(N4CCOCC4)c3s2)CC1` [GDC-0941], the normalised viability with BT-549 [1] came to 94.6%; with HCC1599, 92.8%; in the assay on MDA-MB-231, 92.9%; with HCC1143 [2] it was 84.1%; in the assay on CAL-85-1, 87.5%; in the assay with MDA-MB-468, 95.5%. Moreover, the normalised viability with CAL-148 stood at 100%; in the assay on HCC1937, 112%; with MDA-MB-436 [3], 118%; in the assay with HDQ-P1, 109%; in the assay with MFM-223 [4] it was 89.7%; in the assay with MDA-MB-453, 93%. In addition, the normalised viability in the assay with CAL-51 [5] was 114%; in the assay with BT-474 [6], 101%; in the assay on DU-4475, 106%; in the assay with CAL-120 [7] it was 89.7%; in the assay with SK-BR-3, 88.3%; with Hs578T [8], 112%. Also, the “EC50, CellTiter-Blue viability” value was 0.882 µM in the assay on HCC1143 [9] and 0.99 µM in the assay with CAL-120 [10].

Take `Cc1cccc(-c2nn3c(c2-c2ccnc4ccc(C(N)=O)cc24)CCC3)n1` [Galunisertib]: the “EC50, CellTiter-Glo” value in the assay with CAL-51 [11] is over 1 µM.

`Nc1cccc2c1CN(C1CCC(=O)NC1=O)C2=O` (stereo not given) [Lenalidomide]: the normalised viability was 108% and 115% in the assay on BT-549 [1]; 92.1% and 98.5% with HCC1599; 85.2% and 82.6% with MDA-MB-231; 85.5% and 80.6% in the assay with HCC1143 [2]; 79.2% and 80.7% in the assay with CAL-85-1; 99.6% and 98.9% with MDA-MB-468. Also, the normalised viability in the assay with CAL-148 is 92.4% and 102%; in the assay with HCC1937 it was 90.1% and 78%; in the assay with MDA-MB-436 [3], 97.6% and 82.2%; in the assay on HDQ-P1 it was 86.6% and 103%; in the assay on MFM-223 [4], 89.4% and 94.1%; with MDA-MB-453, 87.5% and 104%. Further, the normalised viability in the assay with CAL-51 [5] was 104% and 105%; in the assay on BT-474 [6] it was 93.9% and 73.5%; in the assay on DU-4475 it was 99% and 102%; with CAL-120 [7] it was 76.8% and 81.8%; in the assay on SK-BR-3 it was 94.7% and 87.4%; with Hs578T [8] it was 97.1% and 106%. In addition, the “EC50, CellTiter-Glo” value in the assay on CAL-120 [12] is over 10 µM.

Turning to `COc1nc(N)nc2c1ncn2[C@@H]1O[C@H](CO)[C@@H](O)[C@@H]1O` [Nelarabine], the normalised viability in the assay on BT-549 [1] was 92% and 96.5%; in the assay on HCC1599, 121% and 119%; in the assay on MDA-MB-231 it was 93.7% and 78.7%; with HCC1143 [2], 105% and 98.5%; in the assay with CAL-85-1, 105% and 107%; in the assay with MDA-MB-468, 103% and 92.2%. The normalised viability with CAL-148 was 101% and 110%; with HCC1937 it was 94.7% and 81.3%; in the assay on MDA-MB-436 [3] it was 98.1% and 89.7%; with HDQ-P1, 77.2% and 91.2%; with MFM-223 [4] it was 97.6% and 107%; with MDA-MB-453 it was 101% and 80.4%. The normalised viability is 102% and 99.3% with CAL-51 [5]; 109% and 118% in the assay on DU-4475; 101% and 102% with CAL-120 [7]; 90% and 95.9% in the assay on SK-BR-3; 99.1% and 107% in the assay with Hs578T [8]. In addition, the “EC50, CellTiter-Glo” value with MDA-MB-436 [13] and in the assay with BT-474 [14] was over 10 µM in each case.

On to `Cc1ccc(Nc2nccc(N(C)c3ccc4c(C)n(C)nc4c3)n2)cc1S(N)(=O)=O` [Pazopanib], for which the normalised viability in the assay on BT-549 [1] was 110%; with HCC1599, 103%; in the assay on MDA-MB-231 it was 97.7%; with HCC1143 [2], 87.1%; in the assay on CAL-85-1, 93.6%; in the assay with MDA-MB-468, 106%. The normalised viability in the assay on CAL-148 was 89.3%; with HCC1937, 77.9%; with MDA-MB-436 [3] it was 95.8%; in the assay with HDQ-P1, 72.8%; in the assay with MFM-223 [4], 90%; in the assay with MDA-MB-453 it was 106%. The normalised viability came to 103% in the assay on CAL-51 [5]; 93.2% with BT-474 [6]; 98.9% in the assay on DU-4475; 78.5% in the assay with CAL-120 [7]; 105% in the assay with SK-BR-3; 94.8% in the assay on Hs578T [8]. Further, the “EC50, CellTiter-Glo” value with BT-549 [15] is 4.18 µM; with MFM-223 [16] it was 0.645 µM; in the assay on Hs578T [17], over 10 µM.
